In patent publication US9499551B2, “Substituted pyrrolo[2,3-b]pyridines for treating cancer or inflammatory diseases” (Confluence Life Sciences, Inc., priority 2014, dated 2016):

How the values were obtained:
TAK1-TAB1 = target: T1, TAK1-TAB1 (Homo sapiens, UniProt O43318); test: TAK1-TAB1 binding inhibitory potency (LanthaScreen competitive binding assay, kinase tracer-236); settings: 10 nM TAK1-TAB1, 100 nM kinase tracer-236; read-out: TAK1-Tab Inhibition IC50
T1 sequence (O43318 with tags, fused parts or gaps limits assumed): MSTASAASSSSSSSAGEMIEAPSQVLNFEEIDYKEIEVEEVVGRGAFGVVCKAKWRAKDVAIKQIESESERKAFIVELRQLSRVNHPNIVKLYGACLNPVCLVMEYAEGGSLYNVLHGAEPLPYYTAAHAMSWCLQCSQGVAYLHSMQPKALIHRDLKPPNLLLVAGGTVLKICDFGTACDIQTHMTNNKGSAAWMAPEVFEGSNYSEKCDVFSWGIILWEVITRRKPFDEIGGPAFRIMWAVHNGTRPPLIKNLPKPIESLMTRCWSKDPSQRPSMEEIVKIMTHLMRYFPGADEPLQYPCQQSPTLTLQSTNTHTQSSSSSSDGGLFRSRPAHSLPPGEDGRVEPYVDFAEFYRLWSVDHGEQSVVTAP
Source text: TAK1-TAB1 Binding Inhibitory Potency:
The ability of candidate compounds to interact with TAK1-TAB1 is quantitated by a competitive binding assay using the LanthaScreen technology developed by Life Technologies. This assay is based on the binding of a proprietary, Alexa Fluor® 647-labeled, ATP-competitive kinase inhibitor (kinase tracer-236) to the TAK1-TAB1 construct in presence of a europium-conjugated antibody, resulting in a FRET (fluorescence resonance energy transfer) signal. Displacement of the kinase tracer by compound results in a lower emission ratio upon excitation of the europium chelate. Candidate compounds are designed as potential irreversible inhibitors of TAK1-TAB1, capable of ligating to an active site cysteine residue. The time dependent nature of irreversible inhibition is investigated by performing the binding assay with and without a pre-incubation of compound and TAK1-TAB1.
The inhibitory potency of candidate compounds is measured in 20 mM HEPES pH 7.5, 10 mM MgCl2, 0.01% BSA, 0.0005% Tween-20, and 2% DMSO in the presence of 10 nM TAK1-TAB1, 2 nM Eu-anti-his antibody, and 100 nM kinase tracer-236 using a 384-well plate format. Background signal is defined in the absence of TAK1-TAB1 and uninhibited signal is defined in the presence of vehicle (2% DMSO) alone. Compounds were evaluated in an 11 point dose-response ranging from 20 μM to 0.34 nM. The binding assays are performed under two conditions to evaluate time dependence of inhibition. For the pre-incubation assay, TAK1-TAB1 and Eu-anti-his antibody are preincubated with compound or vehicle for two hours prior to the addition of kinase tracer. The non-preincubated assay is run in which TAK1-TAB1 and Eu-anti-his antibody are added to a mixture of compound and kinase tracer. IC50 values of compounds are determined using a 4 parameter logistical fit of emission ratio as a function of the concentration of compound. […]

[1] = tested on: IL-6 Production in Human Peripheral Blood Mononuclear Cells (PBMC); test: LPS stimulated IL-6 production in PBMC cells; type: cell-based; settings: read-out: IL-6 Production Inhibition IC50
Description: LPS Stimulated IL-6 Production in PBMC Cells:
Lipopolysaccharide (LPS) stimulated IL-6 Production in Human Peripheral Blood Mononuclear Cells (PBMC): The cellular efficacy of compound candidates is determined using peripheral blood mononuclear cells purified from human whole blood, based upon the methods of Burnette et al. (2009) Pharmacology, 84:42-60. PBMC produce a number of cytokines (IL6, IL8, IL1β and TNFα) in response to stimulation with LPS. To induce the production of inflammatory mediators, PBMC are plated at a final concentration of 2×10^5 cells/well in a 96 well flat bottom plate in DMEM medium supplemented with 10% fetal bovine serum, 100 units/ml penicillin and 100 μg/ml streptomycin (Gibco BRL Life Technologies). Cells are treated with or without inhibitors for 1-3 hrs then stimulated with 100 ng/ml LPS (serotype 011:B4, Sigma) for an additional 3 hrs at 37° C. with 5% CO2. The supernatants are removed and stored at −20° C. until they are to be assayed. The levels of inflammatory mediators are determined using commercial MSD cytokine kits (Meso Scale Discovery) as per the manufacturer's instructions. Standard curves are based on 7 steps of 4× serial dilutions, with a wide dynamic range of 10000 pg/ml to 2.4 pg/ml, and a blank. Lower limit of detection (LLOD) is calculated at the commonly used 3× the standard deviation of the blank.

Compound	IC50 (TAK1-TAB1) [nM]	IC50 [1] [nM]
NC(=O)/C=C/c1c[nH]c2ncc(-c3cnc4ccccc4c3)nc12 [Example 263, (E)-3-(2-(quinolin-3-yl)-5H-pyrrolo[2,3-b]pyrazin-7-yl)acrylamide]	≤ 1000	≤ 1000
NC(=O)/C=C/c1c[nH]c2ncc(-c3cc(C(F)(F)F)cc(C(F)(F)F)c3)cc12 [Example 253, (E)-3-(5-(3,5-bis(trifluoromethyl)phenyl)-1H pyrrolo[2,3-b]pyridin-3-yl)acrylamide]	≤ 1000	≤ 1000
NC(=O)/C=C/c1c[nH]c2ncc(-c3ccccc3)nc12 [Example 4, (E)-3-(2-Phenyl-5H-pyrrolo[2,3-b]pyrazin-7-yl)acrylamide]	≤ 1000	≤ 1000
CC(=O)O[C@@H](C)CNC(=O)c1ccc(-c2cnc3[nH]cc(/C=C/C(N)=O)c3c2)cc1 [Example 293, (S,E)-1-(4-(3-(3-amino-3-oxoprop-1-en-1-yl)-1H-pyrrolo[2,3-b]pyridin-5-yl)benzamido) propan-2-yl acetate]	≤ 1000	> 1000
N#Cc1ccc(-c2cnc3[nH]cc(/C=C/C(N)=O)c3n2)cc1 [Example 249, (E)-3-(2-(4-cyanophenyl)-5H-pyrrolo[2,3-b]pyrazin-7-yl)acrylamide]	≤ 1000	≤ 1000
C[C@H](O)C(=O)N1CCN(c2cnc3[nH]cc(/C=C/C(N)=O)c3c2)CC1 [Example 276, (S,E)-3-(5-(4-(2-hydroxypropanoyl)piperazin-1-yl)-1H-pyrrolo[2,3-b]pyridin-3-yl)acrylamide]	≤ 1000	> 1000
NC(=O)/C=C/c1c[nH]c2ncc(Cc3ccccc3)cc12 [Example 39]	≤ 1000	≤ 1000
CC(C)Oc1cnc2[nH]cc(/C=C/C(N)=O)c2c1 [Example 8, 3-(5-Isopropoxy-1H-pyrrolo[2,3-b]pyridin-3-yl)-acrylamide]	≤ 1000	≤ 1000
CC(C)C(=O)NC1CN(c2cnc3[nH]cc(/C=C/C(N)=O)c3c2)C1 [Example 283, (E)-3-(5-(3-isobuty-ramidoazetidin-1-yl)-1H-pyrrolo[2,3-b]pyridin-3-yl)acrylamide]	≤ 1000	≤ 1000
CC(C)(O)c1cccc(-c2cnc3[nH]cc(C=C(C(N)=O)C(N)=O)c3c2)c1 [Example 365, 2-((5-(3-(2-hydroxypropan-2-yl)phenyl)-1H-pyrrolo[2,3-b]pyridin-3-yl)methylene) malonamide]	≤ 1000	
CC(=O)c1cccc(-c2cnc3[nH]cc(/C=C/C(N)=O)c3n2)c1 [Example 306, (E)-3-(2-(3-acetylphenyl)-5H-pyrrolo[2,3-b]pyrazin-7-yl)acrylamide]	≤ 1000	
CC(C)(O)c1ccc(-c2cnc3[nH]cc(/C=C(\C#N)C(N)=O)c3c2)cc1 [Example 360, (E)-2-cyano-3-(5-(4-(2-hydroxypropan-2-yl)phenyl)-1H-pyrrolo[2,3-b]pyridin-3-yl)acrylamide]	≤ 1000	

Second part, led by results:

IC50 (TAK1-TAB1) [nM]	Compound	IC50 [1] [nM]
≤ 1000	C[C@@H](O)CNC(=O)c1ccc(-c2cnc3[nH]cc(/C=C/C(N)=O)c3c2)cc1 [Example 294, (R,E)-4-(3-(3-amino-3-oxoprop-1-en-1-yl)-1H-pyrrolo[2,3-b]pyridin-5-yl)-N-(2-hydroxypropyl) benzamide]	> 1000
≤ 1000	NC(=O)/C=C/c1c[nH]c2ncc(-c3ccc(C(=O)N4CCCCC4)cc3)cc12 [Example 262, (E)-3-(5-(4-(piperidine-1-carbonyl)phenyl)-1H-pyrrolo[2,3-b]pyridin-3-yl)acrylamide]	≤ 1000
≤ 1000	CC(C)NC(=O)c1ccc(-c2cnc3[nH]cc(/C=C/C(N)=O)c3c2)nc1 [Example 295, (E)-6-(3-(3-amino-3-oxoprop-1-en-1-yl)-1H-pyrrolo[2,3-b]pyridin-5-yl)-N-isopropyl-nicotinamide]	> 1000
≤ 1000	CN1CCC(NC(=O)c2ccc(-c3cnc4[nH]cc(/C=C/C(N)=O)c4c3)nc2)CC1 [Example 296, (E)-6-(3-(3-amino-3-oxoprop-1-en-1-yl)-1H-pyrrolo[2,3-b]pyridin-5-yl)-N-(1-methylpiperidin-4-yl)nicotinamide]	> 1000
≤ 1000	NC(=O)/C=C/c1c[nH]c2ncc(N3CCN(C(=O)c4ccccc4)CC3)cc12 [Example 267, (E)-3-(5-(4-benzoylpiperazin-1-yl)-1H-pyrrolo[2,3-b]pyridin-3-yl)acrylamide]	> 1000
≤ 1000	COc1cc(OC2CCCC2)cc(-c2cnc3[nH]cc(/C=C/C(N)=O)c3c2)c1 [Example 257, (E)-3-(5-(3-(cyclopentyloxy)-5-methoxyphenyl)-1H-pyrrolo[2,3-b]pyridin-3-yl)acrylamide]	≤ 1000
≤ 1000	COc1cccc(-c2cnc3[nH]cc(/C=C/C(N)=O)c3c2)c1 [Example 11, (E)-3-(5-(3-Methoxyphenyl)-1H-pyrrolo[2,3-b]pyridin-3-yl)acrylamide]	≤ 1000
≤ 1000	NC(=O)/C=C/c1c[nH]c2ncc(-c3cncnc3)cc12 [Example 286, (E)-3-(5-(pyrimidin-5-yl)-1H-pyrrolo[2,3-b]pyridin-3-yl)acrylamide]	> 1000
≤ 1000	NC(=O)/C=C/c1c[nH]c2ncc(-c3ccc(N4CCCC4)nc3)cc12 [Example 250, (E)-3-(5-(6-(pyrrolidin-1-yl)pyridin-3-yl)-1H-pyrrolo[2,3-b]pyridin-3-yl)acrylamide]	≤ 1000
≤ 1000	NC(=O)/C=C/c1c[nH]c2ncc(N3CCN(c4ccccc4)CC3)cc12 [Example 297, (E)-3-(5-(4-phenylpiperazin-1-yl)-1H-pyrrolo[2,3-b]pyridin-3-yl)acrylamide]	≤ 1000
≤ 1000	CCC(C)(O)c1ccc(-c2cnc3[nH]cc(/C=C/C(N)=O)c3c2)cc1 (centres unmarked) [Example 310, (E)-3-(5-(4-(2-hydroxybutan-2-yl)phenyl)-1H-pyrrolo[2,3-b]pyridin-3-yl)acrylamide]	
> 1000	NC(=O)/C=C/c1c[nH]c2ncc(-c3ccc(N4CCCC4)nc3)nc12 [Example 254, (E)3-(2-(6-(pyrrolidin-1-yl)pyridin-3-yl)-5H-pyrrolo[2,3-b]pyrazin-7-yl)acrylamide]	
≤ 1000	CCOCCOc1ccc(-c2cnc3[nH]cc(/C=C/C(N)=O)c3c2)cn1 [Example 336, (E)-3-(5-(6-(2-ethoxyethoxy)pyridin-3-yl)-1H-pyrrolo[2,3-b]pyridin-3-yl)acrylamide]	
≤ 1000	CC(C)c1ccc(C(=O)N2CCN(c3cnc4[nH]cc(/C=C/C(N)=O)c4c3)CC2)cc1 [Example 335, (E)-3-(5-(4-(4-isopropylbenzoyl)piperazin-1-yl)-1H-pyrrolo[2,3-b]pyridin-3-yl)acrylamide]	
≤ 1000	NC(=O)/C=C/c1c[nH]c2ncc(-c3ccc4c(c3)C(=O)CC4)cc12 [Example 352, (E)-3-(5-(3-oxo-2,3-dihydro-1H-inden-5-yl)-1H-pyrrolo[2,3-b]pyridin-3-yl)acrylamide]	
≤ 1000	NC(=O)/C=C/c1c[nH]c2ncc(-c3ccc4c(c3)CCC4=O)nc12 [Example 343, (E)-3-(2-(1-oxo-2,3-dihydro-1H-inden-5-yl)-5H-pyrrolo[2,3-b]pyrazin-7-yl)acrylamide]	
